# According to patent publication US10654852B2, “Antibiotics and methods of using same” (THE BROAD INSTITUTE, INC., priority 2016, dated 2020):
# Legend:
# [1] = test system: Escherichia coli ATC-25922; assay: MIC, broth microdilution; type: cell-based; conditions: ATC25922
# From the text: As used herein, the term “MIC” refers to minimum inhibitory concentrations. Minimum inhibitory concentrations may be determined by broth microdilution according to the Clinical and Laboratory Standards Institute guidelines (see, e.g., […]-A8. Methods for dilution antimicrobial susceptibility tests for bacteria that grow aerobically: approved standard, 8th Ed.; […] One example for measuring minimum inhibitory concentrations may be found in Reck et al., 2012, J. Med. Chem. 55:6916-6933, the disclosure of which is incorporated by reference. Inoculants may be incubated on blood agar plates for 18 to 24 hours. Incubation may occur at a temperature from about 35° C. to about 37° C. […] In serum supplemented experiments, the testing medium (e.g., DMSO solution) and human serum may be mixed. The ratio of testing medium to human serum may be 1:1 (vol:vol). Plates may be read by spectrophotometry at 620 nm. Unless indicated otherwise, all inhibitory concentrations recited in the specification relate to MICs. The MIC tests were based on broth microdilution method in CLSI-M7. […] Solutions of varying concentrations of DMSO were prepared in wells of a v-bottom 96-well plate (Axygen-WIPP02280). A multi-pipette was used to perform serial dilutions as necessary. From well to well, the drug concentrations were 6.4, 3.2, 1.6, 0.8, 0.4, 0.2, 0.1, 0.05, 0.025, 0.0125, 0.00625 and 0 mg/ml in DMSO. For extremely potent antibiotic, the starting concentrations were adjusted accordingly. This was the drug mother plate. Daughter plates were prepared by placing 98 μl of a testing medium into each well of a u-bottom 96-well plate (Costar 3788). An aliquot of each 2 μl solution from each well of the mother plate was then transferred into the corresponding wells of the daughter plate using a multi-pipette work station (CyBi®-SELMA). Testing media were selected based on CLSI-M7, M11 and […]. Cation adjusted Mueller Hinton Broth (CA-MHB-212322) was the testing medium for majority of bacterial species. […] The MIC values were determined and based on the standards of CLSI methods M7-A7, broth microdilution method. […]
# [2] = test system: Klebsiella pneumonia ATCC-43816; assay: MIC (50% NHS); type: cell-based; conditions: Klebsiella pneumoniae, ATCC43816; Klebsiella pneumonia ATCC-43816, 50% NHS
# [3] = test system: Klebsiella pneumonia ATCC-700603; assay: MIC (50% NHS); type: cell-based; conditions: Klebsiella pneumoniae, ATCC700603; Klebsiella pneumonia ATCC-700603, 50% NHS
# [4] = test system: Pseudomonas aeruginosa ATCC-BAA-47 (PAO1); assay: MIC (50% NHS); type: cell-based
# [5] = test system: Enterobacter aerogenes ATCC-13048; assay: MIC (50% NHS); type: cell-based; conditions: Klebsiella aerogenes, ATCC13048; Enterobacter aerogenes ATCC-13048, 50% NHS
# [6] = test system: Enterobacter cloacae ATCC-222; assay: MIC (50% NHS); type: cell-based; conditions: ATCC222; Enterobacter cloacae ATCC-222, 50% NHS
# [7] = test system: Enterobacter cloacae ATCC-BAA-1143; assay: MIC (50% NHS); type: cell-based; conditions: ATCCBAA1143; Enterobacter cloacae ATCC-BAA-1143, 50% NHS
# [8] = test system: Enterococcus faecium ATCC-700221; assay: MIC (50% NHS); type: cell-based; conditions: ATCC700221; Enterococcus faecium ATCC-700221, 50% NHS
# [9] = in vivo; parameters: species or system mice; conditions: mouse, iv, 10 mg/kg; for half-life: T1/2
# Method: Compounds were tested in a pharmacokinetic (“PK”) study to determine the T1/2 of test compounds in mice. The PK study was performed at an approved contract research organization. Each test compound was dissolved in a vehicle to make a test antibiotic composition. The vehicle may be, for example, a water or a 5% solutol in saline solution Administration to each mouse is performed via intravenous (IV) cannulation of the tail vein. Blood is collected over K2-EDTA anticoagulant from the submandibular or sapheneous vein at predetermined time points. Following collection, the blood samples are stored at −70° C. until analysis by LC-MS and comparison to a standard calibration curve results in the T1/2 for each compound. The blood concentration of test compounds was measured at various times following 10 mg/kg (mouse) intravenous (IV) administration of each tested compound. […] The T1/2 for compound 17 was 34.2 hours, for compound 23 was 22.0 hours, and for compound 24 was 22.5 hours.
SMILES,MIC [1] [µg/mL],MIC [2] [µg/mL],MIC [3] [µg/mL],MIC [4] [µg/mL],MIC [5] [µg/mL],MIC [6] [µg/mL],MIC [7] [µg/mL],MIC [8] [µg/mL],clearance [9] [mL/min/kg],half-life [9] [h],T1/2 [9] [h]
"CN1CC2CN(C(=O)Nc3cc(F)cc(F)c3)CC(C1)C2(O)c1ccc(-c2ccc(CN)cc2C#N)cn1 [Compound 24, (1R,5S,9r)-9-(5-(4-(aminomethyl)-2-cyanophenyl)pyridin-2-yl)-N-(3,5-difluorophenyl)-9-hydroxy-7-methyl-3,7-diazabicyclo[3.3.1]nonane-3-carboxamide]",2,4,16,2,2,0.5,2,4,13.9,22.5,
"CNCc1ccc(-c2ccc(C3(O)C4CN(C)CC3CN(C(=O)Nc3cc(F)cc(F)c3)C4)nc2)c(C#N)c1 [Compound 17, (1R,5S,9r)-9-(5-(2-cyano-4-((methylamino)methyl)phenyl)pyridin-2-yl)-N-(3,5-difluorophenyl)-9-hydroxy-7-methyl-3,7-diazabicyclo[3.3.1]nonane-3-carboxamide]",4,1.78,7.12,1.78,0.45,0.45,3.56,0.89,8.86,34,34.2
"CN1CC2CN(C(=O)Nc3cc(F)cc(F)c3)CC(C1)C2(O)c1ccc(-c2ccc(CN)cc2C#N)cc1 [Compound 23, (1R,5S,9r)-9-(4′-(aminomethyl)-2′-cyano-[1,1′-biphenyl]-4-yl)-N-(3,5-difluorophenyl)-9-hydroxy-7-methyl-3,7-diazabicyclo[3.3.1]nonane-3-carboxamide]",2,2,8,2,1,0.5,2,1,9.78,22,
